How the values were obtained:
[1] = species on record: Rattus norvegicus; test: The percent intrinsic activity, determined by level of antagonist induced secretion; format: functional
[2] = species on record: Rattus norvegicus; test: In vitro relative potency versus [DPhe12,Nle21,38]-hCRF(12-41), using rat pituitary culture assay; format: functional

Compound	IA [1]	Relative potency [2]
CCCC[C@H](NC(=O)[C@H](CCC(=O)O)NC(=O)[C@H](CC(C)C)NC(=O)[C@@H](NC(=O)[C@H](CCC(=O)O)NC(=O)[C@H](CCCN=C(N)N)NC(=O)[C@H](CC(C)C)NC(=O)[C@H](CC(C)C)NC(=O)[C@@H]1CCCCNC(=O)CC[C@H](NC(=O)[C@@H](N)CC(=O)O)C(=O)N[C@@H]([C@@H](C)O)C(=O)N[C@H](Cc2ccccc2)C(=O)N1)C(C)C)C(=O)N[C@@H](C)C(=O)N[C@@H](CCCN=C(N)N)C(=O)N[C@@H](C)C(=O)N[C@@H](CCC(=O)O)C(=O)N[C@@H](CCC(N)=O)C(=O)N[C@@H](CC(C)C)C(=O)N[C@@H](C)C(=O)N[C@@H](CCC(N)=O)C(=O)N[C@@H](CCC(N)=O)C(=O)N[C@@H](C)C(=O)N[C@@H](Cc1c[nH]cn1)C(=O)N[C@@H](CO)C(=O)N[C@@H](CC(N)=O)C(=O)N[C@@H](CCCN=C(N)N)C(=O)N[C@@H](CCCCN)C(=O)N[C@@H](CC(C)C)C(=O)N[C@@H](CCCC)C(=O)N[C@@H](CCC(=O)O)C(=O)N[C@H](C(=O)N[C@H](C(N)=O)[C@@H](C)CC)[C@@H](C)CC	27%	0.27
CCCC[C@H](NC(=O)[C@H](CCC(=O)O)NC(=O)[C@H](CC(C)C)NC(=O)[C@@H](NC(=O)[C@H](CCC(=O)O)NC(=O)[C@H](CCCN=C(N)N)NC(=O)[C@H](CC(C)C)NC(=O)[C@@H]1CCCCNC(=O)CC[C@H](NC(=O)[C@H](CC(C)C)NC(=O)[C@@H](N)CC(=O)O)C(=O)N[C@H](Cc2ccccc2)C(=O)N[C@@H](Cc2c[nH]cn2)C(=O)N1)C(C)C)C(=O)N[C@@H](C)C(=O)N[C@@H](CCCN=C(N)N)C(=O)N[C@@H](C)C(=O)N[C@@H](CCC(=O)O)C(=O)N[C@@H](CCC(N)=O)C(=O)N[C@@H](CC(C)C)C(=O)N[C@@H](C)C(=O)N[C@@H](CCC(N)=O)C(=O)N[C@@H](CCC(N)=O)C(=O)N[C@@H](C)C(=O)N[C@@H](Cc1c[nH]cn1)C(=O)N[C@@H](CO)C(=O)N[C@@H](CC(N)=O)C(=O)N[C@@H](CCCN=C(N)N)C(=O)N[C@@H](CCCCN)C(=O)N[C@@H](CC(C)C)C(=O)N[C@@H](CCCC)C(=O)N[C@@H](CCC(=O)O)C(=O)N[C@H](C(=O)N[C@H](C(N)=O)[C@@H](C)CC)[C@@H](C)CC	29%	0.005
